The values below come from US8946283B2, “Composition for preventing or treating obesity, dyslipidemia, fatty liver or diabetes containing indole-3-carbinol derivative as active ingredient” (Industry-Academic Cooperation Foundation, Yonsei University, priority 2011, dated 2015).

The nature of assay [1]: Biochemical analysis of blood (plasma lipids) of mice fed high-fat test diet. The assay is classed as in vivo, C57BL/6J mice. Conditions: 0.05% in high-fat diet, 10 weeks. On the procedure: (§1) The obesity-inducing control diet used in the test was high-fat diet (HFD: 40% fat calorie, 17 g lard+3% corn oil/100 g diet). Diets supplemented with indole-3-carbinol derivatives (B525 and B528) had the same composition as HFD, except that each derivative was included at 0.05% (see Table 2). The diabetic drug metformin was added at 0.1% or the hyperlipidemic drug atorvastatin was added at 0.01% to HFD as controls. The normal diet group (Chow) was fed with commercially available rodent chow.
(§2) 56 5-week-old male C57BL/6J mice (Orient, Korea) were accustomed to the laboratory environment for 1 week while feeding solid feed. Then, they were randomly divided into normal diet, high-fat diet and test groups (n=8/group) and bred for a total of 10 weeks. The diet was given between 10 and 11 a.m. every day together with water. Food intake was measured every day and body weight was measured once a week. In order to avoid transient body weight increase after feed intake, body weight was measured 2 hours after removing the feed. After fasting the test animal for at least 12 hours and anesthetizing with diethyl ether, blood, liver and visceral fat (epididymal fat, perirenal fat, mesenteric fat and retroperitoneal fat) were taken and weighed after washing with 0.1 M PBS (pH 7.4). Blood taken from the abdominal aorta was centrifuged at 1000×g for 15 minutes to separate the plasma.
After 10 weeks of breeding, total cholesterol, triglyceride and glucose levels in the plasma and lipid level in the liver tissue were measured as follows. Total cholesterol, triglyceride and free fatty acid levels in the plasma were measured twice for each using a commercially available kit (Bio Clinical System).

In a further assay the test system is 3T3-L1 cells. The experiment in a line: Inhibition of adipocyte differentiation, Oil Red O staining of triglyceride. Conditions: for differentiation of the preadipocytes 3T3L1: 0.1, 1, 10, 50 and 100 μM, 14 days, vs DMSO control; for triglyceride accumulation in cells: 3T3-L1 cells, FIGS. 1-3. It counts as cell-based, mouse. As for the experimental part:
Mouse adipocyte cell line (3T3-L1) was used to investigate the effect of various indole-3-carbinol derivatives on differentiation and growth of adipocytes. The preadipocytes, 3T3-L1 cells, were seeded on a 12-well plate and cultured to confluency using Dulbecco's modified Eagle's medium (DMEM) containing 1% penicillin-streptomycin, 1% nonessential amino acid and 10% fatal bovine serum (FBS), in a 5% CO2 incubator at 37° C. The 3T3-L1 cells grown to confluency were cultured for 2 days in MDI medium containing 0.5 mM isobutylmethylxanthine, 1 μM dexamethasone and 1 μg/mL insulin to differentiate them into adipocytes. Then, the cells were further cultivated in DMEM containing 1 μg/mL insulin to differentiate them into mature adipocytes. The cells were further cultured for 10 more days while replacing DMEM every other day to obtain fully differentiated adipocytes.
From the first day when MDI was added to the 3T3-L1 cells, 16 indole-3-carbinol derivative compounds were treated at concentrations of 0.1, 1, 10, 50 and 100 μM with 2-day intervals. The structure and molecular weight of the 16 indole-3-carbinol derivatives (B518, B521, B525, B528, B538, B540, B542, B544, B545, B546, B547, B549, B551, B556, B558 and B561) are described in Table 1. The derivative compounds were used after being dissolved in DMSO. Only DMSO was added to the negative control group.
After culturing for a total of 14 days, the medium was removed when the differentiation was completed and lipid droplets in the differentiated adipocytes were stained. For this, the cells were washed twice with phosphate buffered saline (PBS), fixed in 10% buffered neutral formalin (BNF) for 1 hour, washed once again with PBS, stained for 1 hour by adding 1 mL of Oil Red O dye, which specifically stains fat red, on the 12-well plate, and washed twice with distilled water. In order to measure the level of triglyceride contained in the differentiated 3T3-L1 cells, the stained lipid droplets were dissolved in 1 mL of isobutanol and optical density (OD) value was measured at 600 nm.

Assay [2] can be described thus: Fasting blood sugar and oral glucose tolerance test in mice fed high-fat test diet. It counts as in vivo, C57BL/6J mice. As to conditions: for reduction of fasting blood sugar level as compared to HFD: 0.05% in high-fat diet, 8 weeks. On the procedure: as §1, §2
On week 8 after feeding the test diet, oral glucose tolerance test was performed for all the groups. After fasting the mouse for 16 hours, glucose (2 g glucose/10 mL distilled water/kg body weight) was orally administered. Before and 15, 30, 60 and 120 minutes after the oral administration, the tail end was cut by about […] and blood was taken. Glucose level was measured using a glucose meter.

A short description of assay [3]: Liver weight and lipid level in liver tissue of mice fed high-fat test diet. Conditions: 0.05% in high-fat diet, 10 weeks. The assay is classed as in vivo, C57BL/6J mice. On the procedure:
as §1, §2
Lipids were extracted from the liver tissue according to Folch et al.'s method Folch J et al., J Biol. Chem. 226: 497-509 (1957)). After adding 1 mL of distilled water to 0.25 g of liver tissue, the liver tissue was homogenized using a Polytron homogenizer (IKA-Werke GmbH & Co., Ultra-Turrax, Staufen, Germany). After adding 5 mL of chloroform:methanol solution (2:1, v/v) to the homogenate and mixing well, the mixture was centrifuged at 1000×g for 10 minutes. After adding 2 mL of chloroform:methanol solution (2:1, v/v) again to the supernatant, the same procedure was repeated to completely separate the lipid components of the liver. After adding 3 mL of chloroform:methanol:0.05% CaCl2 (3:48:47, v/v/v) solution to the remaining pellets and mixing well for 1 minute, followed by centrifugation at 1000×g for 10 minutes, the resulting pellets were completely dried with nitrogen gas. The dried lipids were dissolved in 1 mL of methanol and then analyzed.
The same kit (Bio Clinical System) as that used for the plasma analysis was used to measure the triglyceride and cholesterol levels of the liver tissue.

Assay [4] in a line: Body weight gain and visceral fat weight of mice fed high-fat test diet. Conditions: 0.05% in high-fat diet, 10 weeks. The assay is classed as in vivo, C57BL/6J mice. On the procedure:
as §1, §2

With `C=CCN1C(=O)C(O)(c2c(C)[nH]c3ccccc23)c2cc(Br)ccc21` (stereo not shown) [B525, 1′-Allyl-5′-bromo-3′-hydroxy-2-methyl-1′,3′-dihydro-1H,2′H-3,3′-biindol-2′-one], in assay [1], the “reduction of arteriosclerotic index in blood plasma as compared to HFD” value is reported as 30%, the “reduction of total cholesterol level in blood plasma as compared to HFD” value is given as 18% and the “reduction of triglyceride level in blood plasma as compared to HFD” value stood at 32%. In the assay on 3T3-L1 cells, the “differentiation of the preadipocytes 3T3L1” value is on record as “reduced the differentiation of the preadipocytes 3T3L1 in a concentration-dependent manner” and the “triglyceride accumulation in cells” value is reported as “effectively reduce triglyceride accumulation in cells”. Also, the “reduction of fasting blood sugar level as compared to HFD” value in assay [2] was found to be 37%. Moreover, the “effect on oral glucose tolerance compared to controls metformin and atorvastatin” value in assay [2] (OGTT, week 8) was “excellent effect of improving oral glucose tolerance, better than the controls metformin and atorvastatin”. For the same compound, in assay [3], the “appearance of liver tissue as compared to HFD” value was “smaller and darker liver tissue”; the “decrease of cholesterol level in liver tissue as compared to HFD” value is reported as 22%; the “decrease of liver weight as compared to HFD” value is recorded as 26%; the “decrease of triglyceride level in liver tissue as compared to HFD” value amounted to 18%. In addition, in assay [4], the “decrease of body weight gain as compared to HFD” value was 21%; the “reduction of total visceral fat weight as compared to HFD” value turned out to be 20%; the “weight of epididymal fat, perirenal fat, mesenteric fat and retroperitoneal fat as compared to HFD” value was “significantly reduced”.

Consider `CCN1C(=O)C(O)(c2c(C)[nH]c3ccccc23)c2cc(Br)ccc21` (stereo not shown) [B528, 5′-Bromo-1′-ethyl-3′-hydroxy-2-methyl-1′,3′-dihydro-1H,2′H-3,3′-biindol-2′-one], for which, in assay [1], the “reduction of arteriosclerotic index in blood plasma as compared to HFD” value was found to be 35%, the “reduction of total cholesterol level in blood plasma as compared to HFD” value is reported as 21% and the “reduction of triglyceride level in blood plasma as compared to HFD” value was 38%. In the assay with 3T3-L1 cells, the “differentiation of the preadipocytes 3T3L1” value is recorded as “reduced the differentiation of the preadipocytes 3T3L1 in a concentration-dependent manner” and the “triglyceride accumulation in cells” value was “effectively reduce triglyceride accumulation in cells”. For the same compound, the “reduction of fasting blood sugar level as compared to HFD” value in assay [2] came to 39%. Moreover, the “blood glucose level after oral glucose as compared to HFD” value in assay [2] (OGTT, 15, 30, 60 and 120 minutes, week 8) is recorded as “decreased blood glucose level at all times”. In assay [2] (OGTT, after 60 minutes, week 8), the “change of blood glucose level after oral glucose as compared to HFD” value is recorded as −29%. For the same compound, in assay [2] (OGTT, week 8), the “area under the curve (AUC) of the blood glucose level as compared to HFD” value was “decreased significantly”; the “effect on oral glucose tolerance compared to controls metformin and atorvastatin” value is “excellent effect of improving oral glucose tolerance, better than the controls metformin and atorvastatin”. Further, in assay [3], the “appearance of liver tissue as compared to HFD” value was “smaller and darker liver tissue”; the “decrease of cholesterol level in liver tissue as compared to HFD” value is on record as 28%; the “decrease of liver weight as compared to HFD” value is reported as 31%; the “decrease of triglyceride level in liver tissue as compared to HFD” value was 34%. Further, in assay [4], the “decrease of body weight gain as compared to HFD” value is recorded as 30%; the “reduction of total visceral fat weight as compared to HFD” value amounted to 26%; the “weight of epididymal fat, perirenal fat, mesenteric fat and retroperitoneal fat as compared to HFD” value is on record as “significantly reduced”.
